Assay results taken from patent US4968696A, “N,N'-bis-L-amino acid-L-cystine-peptide containing amino acid preparations for oral parenteral nutrition” (Pfrimmer + Co. Pharmazeutische Werke Erlangen GmbH + co. KG, priority 1986, dated 1990).
Read-outs that look alike come from different tables or passages of the source. Where a SMILES comes first, the peptide text is derived from it. Bridges are numbered along the chain shown (N, C = ends). Roman numbers before positions name the chains, in order.

Experiments:
Solubility in water = format: physicochemical
[1] = Sterilization tests (heat sterilization of aqueous peptide solutions, analysed by capillary isotachophoresis and HPLC); format: physicochemical; conditions: heat sterilization (121° C.)
Description: Starting from a stock solution of the tripeptide of the invention so obtained (2 mmol/1 in tris-buffer) solutions having pH-values of 5.5, 6.5, 7.5 and 8.5 were prepared by addition of 0.1 N HCL or KOH, respectively. Thereafter 0.1 ml each of these solutions were filled into ampoules purified with chromosulfuric acid, met sealed under vacuum and sterilized over 8, 12, 15 or 30 min, respectively.
Further respective solution of the cystinyl-bis-alanine-tripeptide were prepared and treated analogeously.
The stock solutions as well as the sterilized samples were analysized by means of capillary-isotachophoreses and HPLC. […] Therefore, said tripeptides are not only suitable for oral preparations, but also and in particular for the preparation of parenteral infusion solutions.

[2] = In vivo utilization: single injection via vena cava catheter, plasma peptide/amino acid concentrations by RP-HPLC after DANSYL derivatization; design: species or system male Wistar-rats; conditions: for tripeptide concentration in plasma: 20 μmol/100 g bw
Description: For physiological investigation of the in vivo utilization of bis-amino acid cystine-peptides bis-glycyl-L-cystine and bis-L-alanyl-L-cystine were selected as examples and injected into male Wistar-rats in the form of a peptide single injection (50 μmole/100 g bw and 20 μmole/100 g bw respectively, injection volume 0.5-1 ml), by means of a vena cava-catheter within 5 s. The withdrawal of blood (1 ml in herparinized syringes) was 30, 60, 120, 180 and 300 s after application of the peptides. The plasma obtained by centrifugation was subsequently treated with 30% SSA (ratio of sample to SSA 10:1) for precipitation, maintained 1 h at 4° C., and finally centrifuged.
For determination of the bis-glycyl-L-cystine, mono-glycyl-L-cystine, bis-L-alanyl-L-cystine, mono-L-alanyl-L-cystine peptides as well as of the free amino acids glycine, alanine and cystine the precipitated plasma samples were analysed by high pressure liquid chromatography after pre-column derivatization with 5 dimethylaminonaphthaline-1-sulphonylchloride (DANSYL-Cl). The analytical conditions are summarized below:
RP-HPLC after DANSYL-Precolumn Derivatization
Column: Spherisorb ODS 11 3 μm (125×4.6 mm)
(A) 12.5 mM Na-phosphate-buffer of pH 6.6
Detection: fluorescence Em 550/Ex 325

[3] = cited from earlier work
[4] = 30 s after injection, 50 μmole/100 g bw
[5] = first measurement (30 s), 20 μmole/100 g bw

SMILES: C[C@H](N)C(=O)N[C@@H](CSSC[C@H](NC(=O)[C@H](C)N)C(=O)O)C(=O)O [(ala-cys)2, N,N'-bis-L-alanyl-L-cystine] (I: H-Ala-Cys-OH / II: H-Ala-Cys-OH; disulfide I:2-II:2)
- solubility in water (Solubility in water): well soluble in water
- stability upon heat sterilization in aqueous solution [1]: remain stable upon heat sterilization
- time after injection within which the tripeptide could be detected in all 6 test animals ([2]; 20 μmole/100 g bw): ≤ 2 min
- time of maximum plasma alanine concentration ([2]; 20 μmole/100 g bw): 30 s
- time of maximum plasma cystine concentration ([2]; 20 μmole/100 g bw): 60 s
- tripeptide concentration in plasma ([2]; 30 s after injection): 280 µM
- concentration of intermediate hydrolysis product ala-(cys)2 relative to the tripeptide ([2]; 30 s after injection, 20 μmole/100 g bw): about 5 fold
- detection of tripeptide in plasma at the last sampling ([2]; 300 s after injection, 20 μmole/100 g bw): could not be detected
- maximum plasma cystine concentration versus starting concentration ([2]; after 60 s, 20 μmole/100 g bw): 23 times
- plasma alanine concentration versus starting level ([2]; after 300 s, 20 μmole/100 g bw): 3 times
- plasma alanine concentration versus starting level ([2]; at the beginning (30 s), 20 μmole/100 g bw): ~7 times
- level at time molar at 0.05 h ([2]; male, Wistar, rat, plasma, iv, 20 umole/100 g bw, heading: tripeptide concentration in plasma, 180 s after injection, detected in one sample only, 20 μmole/100 g bw): ~20 µM
- half-life ([2]; male, Wistar, rat, plasma, iv, 20 μmole/100 g bw, concluded from data, not calculable, read-out: plasma half-life): < 2 min
- clearance from the plasma after single injection ([2]; rat): rapidly cleared from the plasma

SMILES: C[C@H](NC(=O)[C@@H](N)CSSC[C@H](N)C(=O)N[C@@H](C)C(=O)O)C(=O)O [L-cystinyl-bis-L-alanine] (I: H-Cys-Ala-OH / II: H-Cys-Ala-OH; disulfide I:1-II:1)
- solubility in water (Solubility in water): well soluble in water
- stability upon heat sterilization in aqueous solution [1]: unstable upon heat sterilization
- time of heat sterilization after which other derivatives are formed [1]: ≤ 8 min

SMILES: CC(=O)N[C@@H](CSSC[C@H](NC(C)=O)C(=O)O)C(=O)O [N,N'-bis-acetylcystine, reference compound]
- solubility in water (prior art statement) [3]: relatively high solubility in water

SMILES: NCC(=O)N[C@@H](CSSC[C@H](NC(=O)CN)C(=O)O)C(=O)O [(gly-cys)2, N,N'-bis-glycyl-L-cystine] (I: H-Gly-Cys-OH / II: H-Gly-Cys-OH; disulfide I:2-II:2)
- tripeptide plasma concentration 5 min after injection relative to the value after 30 s ([2]; 50 μmole/100 g bw single injection, rat plasma): about 10%
- tripeptide concentration in plasma ([2]; 30 s after injection): 655 µM
- plasma cystine concentration versus starting concentration [2, 4]: 14 fold
- plasma glycine concentration versus starting concentration [2, 4]: 12 fold
- plasma cystine concentration versus starting value ([2]; 5 min after injection, 50 μmole/100 g bw): about 30 times
- plasma cystine concentration versus starting point [2, 5]: 10 fold
- plasma glycine concentration versus starting point [2, 5]: 5 fold
- half-life ([2]; male, Wistar, rat, plasma, iv, two compartment model, residual method, n=5, 50 μmole/100 g bw, read-out: calculated half-life (converted)): 4 min
- clearance from the plasma after single injection ([2]; rat): rapidly cleared from the plasma
- solubility in water (prior art statement) [3]: soluble
